According to patent publication US5621113A, “4-[(thien-2-yl)methyl]-imidazole analgesics” (priority 1996, dated 1997):
Structures can show the parent of a compound that is named as a salt. Where two headings read alike, the source gives them in different places.

What was measured:
[1] = tested on: acetylcholine bromide-induced abdominal constriction response; test: Mouse Acetylcholine Bromide-Induced Abdominal Constriction Assay; type: in vivo; details: for ED50 / inhibition in vivo at 30 mg/kg: Mus musculus; for ED50: 0.5 h, oral, 30 minutes before acetylcholine bromide 5.5 mg/kg i.p., dose producing 50% analgesia; for inhibition in vivo at 30 mg/kg: po
Protocol: Mouse Acetylcholine Bromide-Induced Abdominal Constriction Assay
The mouse acetylcholine bromide-induced abdominal constriction assay, as described by Collier et al. in Brit. J. Pharmacol. Chem. Ther., 32: 295-310, 1968, with minor modifications was used to assess analgesic potency of the compounds herein. The test drugs or appropriate vehicle were administered orally (p.o.) and 30 minutes later the animal received an intraperitoneal (i.p.) injection of 5.5 mg/kg acetylcholine bromide (Matheson, Coleman and Bell, East Rutherford, N.J.). The mice were then placed in groups of three into glass bell jars and observed for a ten minute observation period for the occurrence of an abdominal constriction response (defined as a wave of constriction and elongation passing caudally along the abdominal wall, accompanied by a twisting of the trunk and followed by extension of the hind limbs). The percent inhibition of this response to a nociceptive stimulus (equated to % analgesia) was calculated as follows: The % Inhibition of response, i.e., % analgesia is equal to the difference between the number of control animals response and the number of drug-treated animals response times 100 divided by the number of control animals responding.
At least 15 animals were used for control and in each of the drug treated groups. At least three doses were used to determine each dose response curve and ED50 (that dose which would produce 50% analgesia). The ED50 values and their 95% fiducial limits were determined by a computer assisted probit analysis.

[2] = target: T1, Alpha2D adrenergic receptor (Rattus norvegicus, UniProt P22909); test: Alpha2D adrenergic receptor binding assay (3H-para-aminoclonidine, rat cortex synaptic membranes); set-up: species or system rat (male Wistar)
T1 construct: The cortex is dissected out and homogenized in 20 volumes of HEPES sucrose; from tissue; host or cells: rat brain cortex, synaptic membrane fraction (male Wistar rats, Charles River)
T1 sequence (P22909 1-465): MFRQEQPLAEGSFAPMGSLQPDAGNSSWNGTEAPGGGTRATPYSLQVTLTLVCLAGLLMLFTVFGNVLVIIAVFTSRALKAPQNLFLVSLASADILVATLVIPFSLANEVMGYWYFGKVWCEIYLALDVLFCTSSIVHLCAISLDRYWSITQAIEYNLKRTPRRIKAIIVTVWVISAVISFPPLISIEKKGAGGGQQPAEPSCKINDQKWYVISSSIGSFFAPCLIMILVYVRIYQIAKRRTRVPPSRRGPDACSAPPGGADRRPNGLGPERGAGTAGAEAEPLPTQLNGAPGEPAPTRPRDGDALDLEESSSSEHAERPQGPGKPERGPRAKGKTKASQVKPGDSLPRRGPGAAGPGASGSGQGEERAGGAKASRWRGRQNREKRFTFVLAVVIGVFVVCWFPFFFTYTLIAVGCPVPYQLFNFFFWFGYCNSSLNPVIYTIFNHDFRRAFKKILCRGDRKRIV
Protocol: Alpha2D adrenergic receptor binding assay
Male, Wistar rats (150-250 g, VAF, Charles River, Kingston, N.Y.) are sacrificed by cervical dislocation and their brains removed and placed immediately in ice cold HEPES buffered sucrose. The cortex is dissected out and homogenized in 20 volumes of HEPES sucrose in a Teflon®-glass homogenizer. The homogenate is centrifuged at 1000 g for 10 min, and the resulting supernatant centrifuged at 42,000 g for 10 min. The resulting pellet is resuspended in 30 volumes of 3 mM potassium phosphate buffer, pH 7.5, preincubated at 25° C. for 30 min and recentrifuged. The resulting pellet is resuspended as described above and used for the receptor binding assay. Incubation is performed in test tubes containing phosphate buffer, 2.5 mM MgCl2, aliquots of the synaptic membrane fraction, the ligand ^3 H-para-aminoclonidine and test drug at 25° C. for 20 min. The incubation is terminated by filtration of the tube contents through glass fiber filter sheets. Following washing of the sheets with 10 mM HEPES buffer, the adhering radioactivity is quantified by liquid scintillation spectrometry.
Binding of the test drug to the receptor is determined by comparing the amount of radiolabeled ligand bound in control tubes without drug to the amount of radiolabeled ligand bound in the presence of the drug. Dose-response data are analyzed with LIGAND, a nonlinear curve fitting program designed specifically for the analysis of ligand binding data. This assay is described by Simmons, R. M. A., and Jones, D. J., Binding of [^3 H-]prazosin and [^3 H-]p-aminoclonidine to α-Adrenoceptors in Rat Spinal Cord, Brain Research 445:338-349, 1988.

[3] = @ 30 mpk (route not given; method: orally)
[4] = displacement of 3H-para-aminoclonidine, rat cortex membranes, 25° C., 20 min, read-out: Ki

Compound	ED50 [1] [mg/kg]	Ki [2] [nM]	other results
Cc1ccsc1Cc1c[nH]cn1.Cl [Cp-1, 4-[(3-Methylthien-2-yl)methyl]-1H-imidazole Hydrochloride]	0.94	0.45	
Cc1ccsc1C(C)c1c[nH]cn1.Cl (stereo not shown) [Cp-2, 4-[1-(3-methylthien-2-yl)ethyl]-1H-imidazole hydrochloride]	1.4	2.1	
Brc1ccsc1Cc1c[nH]cn1.Cl [Cp-3, 4-[(3-Bromothien-2-yl)methyl]-1H-imidazole Hydrochloride]	1.7	0.35	
CC(c1c[nH]cn1)c1sccc1Br.Cl (stereo not shown) [Cp-4, 4-[1-(3-Bromothien-2-yl)-ethyl]-1H-imidazole Hydrochloride]	2.1	0.96	
Cc1csc(Cc2c[nH]cn2)c1C [Cp-5, 4-[(3,4-dimethylthien-2-yl)methyl]-1H-imidazole hydrochloride]		0.17	inhibition in vivo at 30 mg/kg ([1]; @ 30 mpk/po): 100%
Cc1csc(C(C)c2c[nH]cn2)c1C (stereo not shown) [Cp-6, 4-[-(3,4-Dimethylthien-2-yl)ethyl]-1H-imidazole Fumarate]		0.75	inhibition in vivo at 30 mg/kg ([1]; @ 30 mpk/po): 87%
Brc1csc(Cc2c[nH]cn2)c1Br [Cp-7, 4-[-(3,4-dibromothien-2-yl)methyl]-1H-imidazole fumarate]		0.43	inhibition in vivo at 30 mg/kg ([1]; @ 30 mpk/po): 80%
CC(c1c[nH]cn1)c1scc(Br)c1Br (stereo not shown) [Cp-8, 4-[(3,4-dibromothien-2-yl)ethyl]-1H-imidazole fumarate]	5.7	0.07	
Brc1csc(Cc2c[nH]cn2)c1 [Cp-9, 4-[-(4-Bromothien-2-yl)methyl]1H-imidazole Hydrochloride]		1.4	inhibition in vivo at 30 mg/kg ([1]; @ 30 mpk/po): 80%
CC(C)=C(c1c[nH]cn1)c1sccc1C [drawing 24, reference compound]			Mouse Abdominal Constriction % Inhibition [1, 3]: 47%; Ki [2, 4]: 335 nM
CC(C)=C(c1c[nH]cn1)c1sccc1C [drawing 25, reference compound]			Mouse Abdominal Constriction % Inhibition [1, 3]: 73%; Ki [2, 4]: 1000 nM
Cc1ccc(Cc2c[nH]cn2)s1 [reference compound]		3.6	inhibition in vivo at 30 mg/kg [1, 3]: 33%
c1csc(Cc2c[nH]cn2)c1 [reference compound]		8.7	inhibition in vivo at 30 mg/kg [1, 3]: 60%
CCC(c1c[nH]cn1)c1sccc1C (stereo not shown) [reference compound]		8.3	inhibition in vivo at 30 mg/kg [1, 3]: 100%
